“And” between values parts separate entries of the source, which are not always exact repeats. Equal values may be shown once. “Also recorded” adds a separate entry of the source.
Assays:
[1] = target: T1, Lipase and colipase, purified from human pancreatic gland (Homo sapiens, UniProt P04118+P16233); assay: Determination of lipolysis by colipase/lipase (pH-stat, tributyrine emulsion with NaTDC); format: biochemical
T1 construct: Lipase, Purified from Human Pancreatic Gland; Colipase, Purified from Human Pancreatic Gland; from tissue; host or cells: human pancreatic gland
T1 sequence (P16233 17-465): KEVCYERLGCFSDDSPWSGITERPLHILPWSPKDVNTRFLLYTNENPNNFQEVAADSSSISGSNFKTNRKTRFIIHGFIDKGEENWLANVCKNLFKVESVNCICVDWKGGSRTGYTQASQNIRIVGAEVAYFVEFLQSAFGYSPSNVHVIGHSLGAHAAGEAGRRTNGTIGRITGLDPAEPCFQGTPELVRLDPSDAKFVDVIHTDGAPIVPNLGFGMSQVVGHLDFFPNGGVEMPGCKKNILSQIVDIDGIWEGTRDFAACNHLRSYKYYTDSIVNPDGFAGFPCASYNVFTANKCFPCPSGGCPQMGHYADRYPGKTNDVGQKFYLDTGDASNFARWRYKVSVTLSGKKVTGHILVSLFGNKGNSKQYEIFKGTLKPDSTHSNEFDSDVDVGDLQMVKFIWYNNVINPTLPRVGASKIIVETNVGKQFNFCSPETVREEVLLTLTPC
T1 sequence (P04118 23-112): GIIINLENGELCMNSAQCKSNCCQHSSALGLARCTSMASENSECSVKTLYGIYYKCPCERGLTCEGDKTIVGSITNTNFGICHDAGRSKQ
Text: Determination of Lipolysis by Colipase/Lipase
The most important enzyme in the gastro-intestinal tract being responsible for the hydrolysis of lipids/fats in the gastro-intestinal tract is lipase, pancreatic lipase, together with its protein cofactor colipase. These are two proteins, which are secreted from the pancreatic gland. […] The colipase binds to lipase in a molar 1:1 complex and then moves the complex to the triglyceride surface. In the binding between lipase and colipase hydrogen bonds are present, between arg38 of the colipase and ser343 of the lipase and from glu15 of the colipase and the asn241 of the lipase molecules. In the binding of colipase to the substrate (the lipids/fat) there are both hydrophobic bonds as well as ion-ion bonds present. By an isolated lack of colipase it has been shown that colipase has a decisive role for the lipolysis in the gastro-intestinal tract of humans. Pure lipase and colipase have been produced in accordance with the following.
Lipase, Purified from Human Pancreatic Gland
Colipase, Purified from Human Pancreatic Gland
0.5 ml of tributyrine is mixed with 15 ml of a buffer containing 1 mM CaCl2, 150 mM NaCl, 2 mM tris-maleate, pH 7.0 and 4 mM NaTDC (sodium taurodeoxycholate). An emulsion is obtained by continuous stirring. pH is titrated by means of a pH-state, where 0.1 N NaOH is added automatically to keep an constant pH. 10 μl of lipase is added from a stock solution containing 70 units of lipase/ml, followed by 10 μl of colipase from a stock solution containing 1 mg colipase/ml. An activity is registered which is determined to be 100%. An addition of an inhibitor is then made. A new assay is used for every concentration, prepared in the same way. The inhibition is registered as percentage of control. A dose-response plot is obtained for the compounds having an inhibiting ability.

[2] = In vivo Intralipid feeding test: free fatty acids and triglycerides in blood serum; design: species or system Sprague-Dawley rats
Procedure: Sprague-Dawley rats weighing 200-220 g, stored in cages using a 12 hours of light/12 hours of darkness cycle were used. They had free admittance to food and water prior to the test. The day prior a test the rats were fasted, and were anaesthetised in the morning using diethyl ether. 1 ml of Intralipid (200 mg/ml) with and without inhibitor was fed to the rats by means of a syringe through the mouth and ending in the stomach. Blood samples were taken at time 0, prior to the test start, and then after 30, 60, 120 and 180 minutes after feeding with Intralipid. After centrifugation, serum was separated and stored at −20° C. for analysis. Analyses of free fatty acids, triglycerides and total cholesterol were made. The test has been repeated, also using different dosages of the inhibitors tested.

[3] = Serum PYY 3-36, leptin and ghrelin after 5 days of oral administration; format: in vivo, female Sprague-Dawley rats
Procedure: Blood was drawn in rats from the intra-orbital bullar plexus under anaesthesia and collected in ice-cold tubes. Serum was obtained by centrifugation at 3000 g for 15 min at 4° C. For acute effect of dimethylaminoethyl dodecyl ether on blood lipids, overnight-fasted rats were given 200 μl dimethylaminoethyl dodecyl ether plus 1 ml (200 mg) Intralipids orally through a gastric gavage and blood collected at 0, 30, 60, 120 and 180 min. Plasma triglycerides was determined with an Sigma diagnostics kit. Plasma fatty acids were measured by NEFAC kit (Wako chemicals GmbH, Neuss, Germany). Plasma PYY (3-36) and leptin were measured with the PYY Enzyme Immunossay kit and leptin Enzyme Immunossay (Phoenix Pharmaceuticals, USA)
Stat View program was used for statistics analysis. The data were analyzed using two-way ANOVA followed by post hoc tests for comparison of individual differences. Student's t-test was used for the analysis of triglycerides, PYY3-36, leptin and ghrelin data.

For `CCCCCCCCCCCCOCCN(C)C` [dimethylaminoethyl dodecyl ether], the “Activity Inhibitor” value ([1]; amount of inhibitor 0.97 μmol, control activity 0.313) was 0.237 µmol/min, the “Activity Inhibitor” value ([1]; amount of inhibitor 1.95 μmol, control activity 0.301) was 0.204 µmol/min and the “Activity Inhibitor” value ([1]; amount of inhibitor 3.89 μmol, control activity 0.308) was 0.127 µmol/min. For the same compound, the “Activity Inhibitor” value ([1]; amount of inhibitor 6.81 μmol, control activity 0.319) was 0.069 µmol/min, the “Activity Inhibitor” value ([1]; amount of inhibitor 9.73 μmol, control activity 0.327) was 0.033 µmol/min and the “Activity Inhibitor” value ([1]; amount of inhibitor 14.59 μmol, control activity 0.328) was 0.013 µmol/min. For the same compound, the “Activity Inhibitor” value ([1]; amount of inhibitor 19.46 μmol, control activity 0.332) was 0 µmol/min, the Triglycerides ([2]; rat blood serum, 0 min (prior to Intralipid feeding)) was 103 mg/dL and the Free fatty acids ([2]; rat blood serum, 0 min (prior to Intralipid feeding), listed as Compound C12) was 0.56 mmol and 0.57 mmol. The Triglycerides ([2]; rat blood serum, 30 min after 1 ml Intralipid with inhibitor) was 95 mg/dL, the Free fatty acids ([2]; rat blood serum, 30 min after 1 ml Intralipid with inhibitor, listed as Compound C12) was 0.63 mmol and 0.67 mmol and the Triglycerides ([2]; rat blood serum, 60 min after 1 ml Intralipid with inhibitor) was 98 mg/dL. The Free fatty acids ([2]; rat blood serum, 60 min after 1 ml Intralipid with inhibitor, listed as Compound C12) was 0.70 mmol and 0.72 mmol, the Triglycerides ([2]; rat blood serum, 120 min after 1 ml Intralipid with inhibitor) was 95 mg/dL and the Free fatty acids ([2]; rat blood serum, 120 min after 1 ml Intralipid with inhibitor, listed as Compound C12) was 0.60 mmol and 0.72 mmol. The Triglycerides ([2]; rat blood serum, 180 min after 1 ml Intralipid with inhibitor) was 77 mg/dL, the Free fatty acids ([2]; rat blood serum, 180 min after 1 ml Intralipid with inhibitor, listed as Compound C12) was 0.62 mmol and 0.74 mmol and the “Free fatty acids (% of control)” value ([2]; rat, dose of active compound 10 μg) was 83.7 % of control. The Free fatty acids ([2]; rat, dose of active compound 10 μg, dose 0: 1.45) was 1.25 mM, the “Free fatty acids (% of control)” value ([2]; rat, dose of active compound 50 μg) was 56.1 % of control and the Free fatty acids ([2]; rat, dose of active compound 50 μg, dose 0: 1.45) was 0.83 mM. The “Free fatty acids (% of control)” value ([2]; rat, dose of active compound 100 μg) was 57.4 % of control, the Free fatty acids ([2]; rat, dose of active compound 100 μg, dose 0: 1.45) was 0.85 mM and the “Free fatty acids (% of control)” value ([2]; rat, dose of active compound 200 μg) was 74.3 % of control. For the same compound, the Free fatty acids ([2]; rat, dose of active compound 200 μg, dose 0: 1.45) was 1.1 mM, the “Serum PYY 3-36 level vs controls” value ([3]; fasted rats, 50 μl for 5 days) was “no difference” and the “Serum ghrelin level vs controls” value ([3]; fasted rats, 50 μl for 5 days) was “markedly increased”. The “Serum leptin level vs controls” value ([3]; fasted rats, 50 μl for 5 days) was “markedly decreased; also recorded: significantly decreased” and the “Serum PYY3-36 level” value ([3]; treated rats, 5 days, control rats 0.86±0.24) was 0.85 ± 0.26 ng/mL.

Reference: patent publication US7425577B2, “Lipase-colipase inhibitor” (Forskarpatent 1 SYD AB, priority 2003, dated 2008)
